Source: PubChem BioAssay (NCI)
Values joined by “and” are separate entries in the source; they are usually repeats but may differ in a detail not shown here. Equal values may be shown once.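 The compound was tested at five concentrations on cells cultured in 96-well plates, with a 48-hour exposure period. GI50: concentration for 50% inhibition of growth. At the TGI there is no net growth.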

Columns and labels:
Test in all cases: NCI tumour cell line growth inhibition, 48 h
COLO 205 colon = tested on: COLO 205 colon
DU-145 prostate = tested on: DU-145 prostate
HCT-15 colon = tested on: HCT-15 colon
KM12 colon = tested on: KM12 colon
MOLT-4 leukemia = tested on: MOLT-4 leukemia
OVCAR-4 ovarian = tested on: OVCAR-4 ovarian
RXF 393 renal = tested on: RXF 393 renal
SK-MEL-28 melanoma = tested on: SK-MEL-28 melanoma
SK-MEL-5 melanoma = tested on: SK-MEL-5 melanoma
UACC-62 melanoma = tested on: UACC-62 melanoma

Row | SMILES | GI50 (COLO 205 colon) | TGI (COLO 205 colon) | GI50 (DU-145 prostate) | TGI (DU-145 prostate) | GI50 (HCT-15 colon) | TGI (HCT-15 colon) | GI50 (KM12 colon) | TGI (KM12 colon) | GI50 (MOLT-4 leukemia) | TGI (MOLT-4 leukemia) | GI50 (OVCAR-4 ovarian) | TGI (OVCAR-4 ovarian) | GI50 (RXF 393 renal) | TGI (RXF 393 renal) | GI50 (SK-MEL-28 melanoma) | TGI (SK-MEL-28 melanoma) | GI50 (SK-MEL-5 melanoma) | TGI (SK-MEL-5 melanoma) | GI50 (UACC-62 melanoma) | TGI (UACC-62 melanoma)
1 | COc1cc(/C=C/c2cc(/C=C/c3ccc(O)c(OC)c3)n(C(=O)Nc3ccc(C)cc3)n2)ccc1O | 1.91 µM | 3.51 µM | 0.448 µM | 2.32 µM | 0.384 µM | 5.27 µM | 0.345 µM | 3.18 µM | 0.291 µM | 1.06 µM | 0.697 µM | 5.95 µM | 0.381 µM | 1.41 µM | 0.797 µM | 6.87 µM | 0.306 µM | 1.21 µM | 0.519 µM | 2.61 µM
2 | COc1ccc([C@@H]2[C@@H](Oc3ccccc3)C(=O)N2c2cc(OC)c(OC)c(OC)c2)cc1F | 0.235 µM | 0.972 µM | 0.378 µM | > 100 µM | 0.155 µM | > 100 µM | 0.088 µM | > 100 µM | 0.345 µM | > 100 µM | 2.57 µM | > 100 µM | 0.0593 µM | > 100 µM | 0.26 µM | > 100 µM | 0.0504 µM | 1.49 µM | 0.0419 µM | > 100 µM
3 | O=c1c(Oc2ccc(F)cc2F)cc2cnc(NC3CCOCC3)nc2n1C1CC1 | > 25 µM | > 25 µM | > 25 µM | > 25 µM | > 25 µM | > 25 µM | > 25 µM | > 25 µM | > 25 µM | > 25 µM | > 25 µM | > 25 µM | > 17.1 µM | > 25 µM | > 25 µM | > 25 µM | > 25 µM | > 25 µM | > 25 µM | > 25 µM
4 | C=C(C)c1nc(Oc2ccccc2)nc(Oc2ccccc2)n1 |  | 17.2 µM |  | 30.4 µM |  | 7.43 µM |  | 10.9 µM |  | 1.69 µM |  | 31.7 µM |  | 8.11 µM |  | 15.3 µM |  | 27.4 µM |  | 18.1 µM
5 | CNS(=O)(=O)Nc1nccc(Cc2c(C)c3ccc(Oc4ncccn4)cc3oc2=O)c1F | 0.0176 µM and 0.00703 µM | > 100 µM | 39 µM and > 10 µM | > 100 µM | > 25.7 µM | > 100 µM | 0.467 µM and 0.367 µM | > 100 µM | 53.4 µM and > 10 µM | > 100 µM | 4.33 µM and > 5.62 µM | > 100 µM | 4.99 µM and 3.02 µM | > 100 µM | 0.0234 µM and 0.00549 µM |  | 0.153 µM and 0.926 µM | 17.4 µM and > 10 µM | < 0.0105 µM and 0.00277 µM | 0.0941 µM
6 | N=C(N)SCc1ccc(Cl)c2ccccc12 (tested in a mixture with another compound) |  | 23.9 µM and 19.9 µM |  | 27.7 µM and 25.9 µM |  | 32.8 µM and 36.8 µM |  | 28.3 µM and 27.7 µM |  | 17.3 µM and 4.25 µM |  | 15.9 µM and 24.9 µM |  | 20.5 µM and 22.7 µM |  | 28.1 µM and 25.6 µM |  | 25.6 µM and 21.6 µM |  | 26.4 µM and 25.6 µM
7 | O=C1NC(=O)C2C3C=CC(C12)C1C2C(=O)NC(=O)C2C31 (centres undefined) | > 62.6 µM and 108 µM | 198 µM and > 892 µM | > 619 µM | > 1000 µM | > 43.6 µM and 646 µM | > 61 µM and 250 µM and > 1000 µM | > 1000 µM | 250 µM and > 1000 µM | 160 µM | 201 µM and 850 µM | > 1000 µM | 250 µM and > 1000 µM | > 1000 µM | 250 µM and > 1000 µM | 938 µM | 244 µM and > 1000 µM | 389 µM | 224 µM and > 756 µM | 636 µM | 227 µM and > 1000 µM
8 | Nc1cc(C(F)(F)F)c(-c2nc(N3CCOCC3)nc(N3CCOCC3)n2)cn1 | 0.265 µM | 10 µM | 0.475 µM | > 100 µM | 0.318 µM | > 56.1 µM | 0.835 µM | 59.9 µM | 0.426 µM | 39.8 µM | 0.667 µM | > 31.1 µM | 0.241 µM | 1.07 µM | 0.248 µM | 3.71 µM | 0.384 µM | 2.54 µM | 0.202 µM | 1.38 µM
9 | O=C1NC(c2ccccc2Cl)Nc2ccccc21 (centres undefined) |  | > 54.1 µM |  | > 100 µM |  | > 100 µM |  | > 100 µM |  | > 94.4 µM |  | > 100 µM |  | 63.1 µM |  | > 100 µM |  | > 80.5 µM |  | > 100 µM
10 | O=C1c2ccccc2-c2c1c1c(O)cccc1n2Cc1ccccc1 | 47.4 µM | > 100 µM | 11.9 µM | 64.7 µM | 27.5 µM | > 100 µM | 15.8 µM | 84.9 µM | > 100 µM | > 100 µM | 7.14 µM | 43.9 µM | 11.5 µM | 44.8 µM | 20.8 µM | 62.4 µM | 5.62 µM | 24.7 µM | 7.35 µM | 27.2 µM
11 | N#CC1=C(N)Oc2c(ccc3ccccc23)C1c1cc2ccccc2n2nnnc12 (centres undefined) | 2.69 µM | 7.32 µM | 2.77 µM | > 100 µM | 0.524 µM | > 100 µM | 0.628 µM | > 100 µM | 0.557 µM | > 100 µM | 18.7 µM | > 100 µM | 1.4 µM | 6.59 µM | 4.04 µM | > 100 µM | 0.611 µM | > 100 µM | 0.451 µM | > 100 µM
12 | O=C(CC1(O)C(=O)Nc2c(Cl)cc(Cl)cc21)c1cccc([N+](=O)[O-])c1 (centres undefined) |  | > 61.7 µM |  | > 100 µM |  | > 100 µM |  | > 100 µM |  | 51.5 µM |  | 30 µM |  | 62.7 µM |  | > 80.6 µM |  | 30.9 µM |  | 44.7 µM
13 | COc1ccc(-n2c(=O)c3ccccc3n(Cc3ccc(C(=O)NO)cc3)c2=O)cc1 | 1.75 µM | 4.22 µM | 3.24 µM | > 100 µM | 3.22 µM | 16.2 µM | 1.77 µM | 4.08 µM | 3.21 µM | > 100 µM | 2.86 µM | 20 µM | 1.49 µM | 3.34 µM | 2.18 µM | 5.83 µM | 1.73 µM | 3.45 µM | 1.8 µM | 4.28 µM
